Laboratory results reported in the Kinase Knowledgebase extract (Sharma et al. 2016).

Target: ROCK2 (human) (UniProt O75116)
Experiment: Assessment of ROCK2 Kinase Activity by Luciferase Assay

Chain of ROCK2 (human) (O75116 whole entry, looked up): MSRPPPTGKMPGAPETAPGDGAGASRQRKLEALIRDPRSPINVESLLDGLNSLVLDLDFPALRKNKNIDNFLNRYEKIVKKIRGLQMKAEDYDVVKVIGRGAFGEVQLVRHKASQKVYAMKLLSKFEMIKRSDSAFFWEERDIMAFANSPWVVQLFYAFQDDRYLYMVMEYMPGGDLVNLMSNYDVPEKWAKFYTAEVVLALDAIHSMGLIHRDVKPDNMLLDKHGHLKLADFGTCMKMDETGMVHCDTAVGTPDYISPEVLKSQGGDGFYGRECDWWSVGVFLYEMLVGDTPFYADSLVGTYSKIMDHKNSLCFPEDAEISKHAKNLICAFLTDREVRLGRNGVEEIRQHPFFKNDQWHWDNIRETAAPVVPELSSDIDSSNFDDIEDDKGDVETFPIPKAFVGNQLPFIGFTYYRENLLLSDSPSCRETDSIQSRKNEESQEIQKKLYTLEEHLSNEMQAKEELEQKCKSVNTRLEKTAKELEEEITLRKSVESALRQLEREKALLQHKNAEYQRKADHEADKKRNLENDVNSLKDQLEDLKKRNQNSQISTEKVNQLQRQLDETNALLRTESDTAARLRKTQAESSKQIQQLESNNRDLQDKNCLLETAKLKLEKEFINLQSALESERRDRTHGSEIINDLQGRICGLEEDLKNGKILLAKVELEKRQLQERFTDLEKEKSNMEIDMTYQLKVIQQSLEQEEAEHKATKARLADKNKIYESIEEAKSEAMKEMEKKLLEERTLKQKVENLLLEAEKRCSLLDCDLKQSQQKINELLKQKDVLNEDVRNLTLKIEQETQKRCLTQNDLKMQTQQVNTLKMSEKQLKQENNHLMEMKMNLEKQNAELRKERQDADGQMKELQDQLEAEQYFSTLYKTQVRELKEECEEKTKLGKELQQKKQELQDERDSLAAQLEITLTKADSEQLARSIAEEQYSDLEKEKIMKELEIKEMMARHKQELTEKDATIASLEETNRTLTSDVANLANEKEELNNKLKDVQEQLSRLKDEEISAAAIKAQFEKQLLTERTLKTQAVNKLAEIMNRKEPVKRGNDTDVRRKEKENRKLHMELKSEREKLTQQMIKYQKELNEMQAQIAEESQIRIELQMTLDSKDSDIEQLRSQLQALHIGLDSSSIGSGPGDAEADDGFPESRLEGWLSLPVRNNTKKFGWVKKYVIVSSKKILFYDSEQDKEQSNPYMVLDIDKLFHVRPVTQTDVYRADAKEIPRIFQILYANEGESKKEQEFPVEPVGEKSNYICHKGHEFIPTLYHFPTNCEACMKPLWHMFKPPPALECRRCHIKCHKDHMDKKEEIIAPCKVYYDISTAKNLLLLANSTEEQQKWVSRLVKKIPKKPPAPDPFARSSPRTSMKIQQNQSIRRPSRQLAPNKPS

| SMILES | IC50 | Kd |
| --- | --- | --- |
| COc1ccc(CC(=O)Nc2cccc(C(=O)NCCC3CCCNC3)c2)cc1OC (stereo unspecified) | 3.2 µM | – |
| CN(C)Cc1ccc(NC(=O)c2cccc(CNC(=O)c3ccc(C#N)cc3)c2)cc1 | 1.7 µM | – |
| COc1ccc(NC(=O)Cc2cccc(NC(=O)CCC3CCCNC3)c2)cc1OC (stereo unspecified) | 0.037 µM | – |
| CN(C)Cc1ccc(NC(=O)c2cccc(CNC(=O)Nc3cccc(C(N)=O)c3)c2)cc1 | 0.24 µM | – |
| CN(C)Cc1ccc(NC(=O)c2cccc(CNC(=O)Nc3ccc(C(N)=O)cc3)c2)cc1 | 0.008 µM | – |
| CN(C)Cc1ccc(NC(=O)c2cccc(CNC(=O)Nc3ccc(C#N)c(Cl)c3)c2)cc1 | 0.01 µM | – |
| N#Cc1ccc(NC(=O)NCc2cccc(C(=O)Nc3ccc(CN)cc3)c2)cc1 | 0.07 µM | – |
| N#Cc1ccc(NC(=O)NCc2cccc(NC(=O)CCC3CCCNC3)c2)cc1 (stereo unspecified) | 0.11 µM | – |
| CN(C)Cc1ccc(NC(=O)c2cccc(CNC(=O)Nc3ccc(C(N)=O)c(Cl)c3)c2)cc1 | 0.074 µM | – |
| N#Cc1ccc(NC(=O)NCc2cccc(C(=O)NCCC3CCNCC3)c2)cc1 | 0.065 µM | – |

Next, values leading:

| IC50 | Kd | SMILES |
| --- | --- | --- |
| 0.102 µM | – | COc1ccc(C(=O)NCc2cccc(C(=O)NCCC3CCCN(C)C3)c2)cc1OC (stereo unspecified) |
| 0.266 µM | – | COc1ccc(C(=O)NCc2cccc(C(=O)Nc3ccc(CN(C)C)cc3)c2)cc1C |
| 1.6 µM | – | COc1ccc(NC(=O)NCc2cccc(C(=O)NCCC3CCCNC3)c2)cc1OC (stereo unspecified) |
| 0.16 µM | – | COc1ccc(C(=O)NCc2cccc(C(=O)Nc3ccc(CN(C)C)cc3)c2)cc1C(F)(F)F |
| 0.67 µM | – | CN(C)Cc1ccc(NC(=O)c2cccc(CNC(=O)c3ccc(OC(F)(F)F)c(Cl)c3)c2)cc1 |
| 1200 µM | – | COc1ccc(C(=O)NCc2cccc(C(=O)NCC3CCCO3)c2)cc1OC (stereo unspecified) |
| – | 0.007 µM | COc1ccc(C(=O)NCc2cccc(C(=O)Nc3ccc4c(c3)CNCC4)c2)cc1OC |
| 1.3 µM | – | COc1ccc(C(=O)NCc2cccc(C(=O)Nc3ccc(CN(C)C)cc3)c2)cc1 |
| – | 0.018 µM | COc1ccc(C(=O)NCc2cccc(C(=O)NCCC3CCCNC3)c2)cc1OC (stereo unspecified) |
| 0.685 µM | – | COc1ccc(C(=O)NCc2cccc(C(=O)Nc3ccc4cnccc4c3)c2)cc1OC |
| 0.1 µM | – | COc1ccc(C(=O)NCc2cccc(C(=O)Nc3ccc4c(c3)CCNC4)c2)cc1OC |
